Laboratory results as given in PubChem BioAssay (NCI).
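Each compound was tested at five concentrations against cells in 96-well plates for 48 hours. GI50 is the concentration that inhibits growth by half. TGI is the concentration that stops growth completely.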

Assays:
Experiment in all cases: NCI tumour cell line growth inhibition, 48 h
SNB-19 CNS = system: SNB-19 CNS
HOP-62 NSCLC = system: HOP-62 NSCLC
OVCAR-3 ovarian = system: OVCAR-3 ovarian
MDA-MB-231 breast = system: MDA-MB-231 breast
SK-MEL-5 melanoma = system: SK-MEL-5 melanoma
A498 renal = system: A498 renal
BT-549 breast = system: BT-549 breast
SR leukemia = system: SR leukemia
DU-145 prostate = system: DU-145 prostate
MCF7 breast = system: MCF7 breast

For `C=C1c2ccccc2C(=O)c2c1c1c(C(=O)OC)c(OC(=O)OCc3ccc([N+](=O)[O-])cc3)ccc1n2Cc1ccccc1`, the GI50 (SNB-19 CNS) was 20.3 µM, the TGI (SNB-19 CNS) was 80.9 µM and the GI50 (HOP-62 NSCLC) was 13.3 µM. It also gave a TGI (HOP-62 NSCLC) of 29.3 µM, a GI50 (OVCAR-3 ovarian) of 2.39 µM and a TGI (OVCAR-3 ovarian) of 8.05 µM. The GI50 (MDA-MB-231 breast) was 18.3 µM, the TGI (MDA-MB-231 breast) was 65.6 µM and the GI50 (SK-MEL-5 melanoma) was 29.1 µM. For the same compound, the TGI (SK-MEL-5 melanoma) was 64.3 µM, the GI50 (A498 renal) was 65.5 µM and the TGI (A498 renal) was > 100 µM. It also gave a GI50 (BT-549 breast) of 3.21 µM, a TGI (BT-549 breast) of 9.48 µM and a GI50 (SR leukemia) of 2.59 µM. The TGI (SR leukemia) was > 100 µM, the GI50 (DU-145 prostate) was 3.62 µM and the TGI (DU-145 prostate) was 33.5 µM. The GI50 (MCF7 breast) was 13.4 µM and the TGI (MCF7 breast) was 43.2 µM.

With `N#CC1=C(N)NC(=S)NC1c1ccc(-c2ccc(-c3nc4ccccc4o3)cc2)s1` (stereo unspecified) the GI50 (SNB-19 CNS) was 13.3 µM, the TGI (SNB-19 CNS) was > 50 µM and the GI50 (HOP-62 NSCLC) was 9.33 µM. The TGI (HOP-62 NSCLC) was 20.1 µM, the GI50 (OVCAR-3 ovarian) was 10.7 µM and the TGI (OVCAR-3 ovarian) was 37.2 µM. The GI50 (MDA-MB-231 breast) was 7.16 µM, the TGI (MDA-MB-231 breast) was 16.4 µM and the GI50 (SK-MEL-5 melanoma) was 9.14 µM. For the same compound, the TGI (SK-MEL-5 melanoma) was 18.3 µM, the GI50 (BT-549 breast) was 17.5 µM and the TGI (BT-549 breast) was 47.6 µM. The GI50 (DU-145 prostate) was 17.6 µM, the TGI (DU-145 prostate) was > 50 µM and the GI50 (MCF7 breast) was 6.7 µM. It also gave a TGI (MCF7 breast) of 19.2 µM.

`O=C(NCCc1ccccc1)Nc1ccc2cc3ccc(NC(=O)NCCc4ccccc4)cc3nc2c1` was tested, and the GI50 (SNB-19 CNS) was 1.4 µM, the TGI (SNB-19 CNS) was 2.97 µM and the GI50 (HOP-62 NSCLC) was 1.55 µM. For the same compound, the TGI (HOP-62 NSCLC) was 3.75 µM, the GI50 (OVCAR-3 ovarian) was 1.04 µM and the TGI (OVCAR-3 ovarian) was 2.34 µM. The GI50 (MDA-MB-231 breast) was 1.35 µM, the TGI (MDA-MB-231 breast) was 2.75 µM and the GI50 (SK-MEL-5 melanoma) was 1.5 µM. The TGI (SK-MEL-5 melanoma) was 3 µM, the GI50 (A498 renal) was 1.35 µM and the TGI (A498 renal) was 8.44 µM. For the same compound, the GI50 (BT-549 breast) was 1.64 µM, the TGI (BT-549 breast) was 3.37 µM and the GI50 (SR leukemia) was 0.392 µM. For the same compound, the TGI (SR leukemia) was 16 µM, the GI50 (DU-145 prostate) was 1.24 µM and the TGI (DU-145 prostate) was 2.76 µM. It also gave a GI50 (MCF7 breast) of 0.29 µM and a TGI (MCF7 breast) of 1.2 µM.

Compound `COc1ccc(/C(C)=N/NC(=O)CSc2nc3ccccc3c(=O)n2CCc2ccc(S(N)(=O)=O)cc2)cc1` has a GI50 (SNB-19 CNS) of 2.27 µM, a TGI (SNB-19 CNS) of 4.78 µM and a GI50 (OVCAR-3 ovarian) of 1.99 µM. For the same compound, the TGI (OVCAR-3 ovarian) was 3.85 µM, the GI50 (MDA-MB-231 breast) was 1.87 µM and the TGI (MDA-MB-231 breast) was 3.88 µM. For the same compound, the GI50 (SK-MEL-5 melanoma) was 1.64 µM, the TGI (SK-MEL-5 melanoma) was 3.06 µM and the GI50 (A498 renal) was 2.1 µM. The TGI (A498 renal) was 4.12 µM, the GI50 (BT-549 breast) was 1.66 µM and the TGI (BT-549 breast) was 3.74 µM. The GI50 (SR leukemia) was 2.52 µM, the TGI (SR leukemia) was > 100 µM and the GI50 (DU-145 prostate) was 1.77 µM. It also gave a TGI (DU-145 prostate) of 3.55 µM, a GI50 (MCF7 breast) of 2.95 µM and a TGI (MCF7 breast) of 11.2 µM.

Compound `CC(C)(C)OC(=O)NCCCCn1c2c(c3ccccc3c1=O)C(=O)c1ccccc1-2` has a GI50 (SNB-19 CNS) of 25.1 µM, a TGI (SNB-19 CNS) of 94.5 µM and a GI50 (HOP-62 NSCLC) of 28.7 µM. For the same compound, the TGI (HOP-62 NSCLC) was > 100 µM, the GI50 (OVCAR-3 ovarian) was 5.42 µM and the TGI (OVCAR-3 ovarian) was 23.3 µM. It also gave a GI50 (MDA-MB-231 breast) of 17.1 µM, a TGI (MDA-MB-231 breast) of 53.1 µM and a GI50 (A498 renal) of 23.4 µM. The TGI (A498 renal) was 65.3 µM, the GI50 (BT-549 breast) was 24.5 µM and the TGI (BT-549 breast) was 80.6 µM. It also gave a GI50 (SR leukemia) of 3.59 µM, a TGI (SR leukemia) of 42.4 µM and a GI50 (DU-145 prostate) of 9.59 µM. For the same compound, the TGI (DU-145 prostate) was > 100 µM, the GI50 (MCF7 breast) was 21.3 µM and the TGI (MCF7 breast) was > 100 µM.

In the case of `[N-]=[N+]=NCCCn1c2c(c3ccc([N+](=O)[O-])cc3c1=O)C(=O)c1cc3c(cc1-2)OCO3`, the TGI (SNB-19 CNS) is reported as > 100 µM, the TGI (OVCAR-3 ovarian) is reported as 2.87 µM and the GI50 (MDA-MB-231 breast) is reported as 0.828 µM. The TGI (MDA-MB-231 breast) was 12.3 µM, the GI50 (SK-MEL-5 melanoma) was < 0.0317 µM and the TGI (SK-MEL-5 melanoma) was 0.196 µM. For the same compound, the GI50 (BT-549 breast) was < 0.01 µM, the TGI (BT-549 breast) was < 0.01 µM and the GI50 (SR leukemia) was < 0.01 µM. The TGI (SR leukemia) was < 0.01 µM, the GI50 (DU-145 prostate) was 0.0342 µM and the TGI (DU-145 prostate) was 0.271 µM. The GI50 (MCF7 breast) was 0.158 µM and the TGI (MCF7 breast) was 7.68 µM.
